Values after ≈ are worked out from the molar mass of the structure shown. Like-named read-outs stand apart in the source and are kept apart here. Peptide text beside a SMILES is read from it.
Assays:
S. aureus clin. isolate = assay type: cell-based, Staphylococcus aureus
Source text: (§1) The American Type Culture Collection (ATCC, Rockville, MD, USA) strains and Escherichia coli MG1655 were used as standard bacterial strains. Gram-negative ATCC strains consisted of Escherichia coli (ATCC 25922), Pseudomonas aeruginosa (ATCC 27853), Acinetobacter baumannii (ATCC 19606), and Klebsiella pneumoniae (ATCC 13883). The only Gram-positive standard strain chosen for testing was Staphylococcus aureus (ATCC 29213). Clinical isolates with confirmed multidrug-resistance phenotype were obtained from different wards of the University Hospital Center, Split, Croatia. We described their origin, antibiograms, and resistance phenotype previously. In the same paper, we described the procedure for antimicrobial susceptibility testing on planktonic cells, using the microdilution method in 96-well microtiter plates.
(§2) Briefly, cells were grown on agar plates and a single colony was sampled to generate a liquid culture (LC) grown overnight at 37 °C. The culture was sampled, resuspended in fresh medium, and allowed to grow at 37 °C, until reaching the mid-exponential phase. Lysogeny broth (LB) was used in the case of the E. coli MG1655 cells. Mueller Hinton (MH) medium was used for all other bacterial strains. Serial 2-fold dilutions of the peptide (64 μM to 0.0625 μM) were prepared from peptide stock solution in PBS, and added to a final load of 5 × 10^5 CFU/mL in 100 μL total volume of medium per well in a 96-well plate (Brand 781660). Bacterial cultures were incubated with peptides for 18 h to 24 h at 37 °C. The minimum inhibitory concentration (MIC) was defined as the lowest concentration of the peptide, at which no visible bacterial growth was observed. The MIC for each of the tested peptides was determined in at least three individual assays under the same laboratory conditions. […] At the end of the incubation period for MIC or MBC, the determination of the OD600 was analyzed.

P. aerug. clin. isolate = assay type: cell-based, Pseudomonas aeruginosa
Source text: as §1, §2

[1] = tested on: human primary dermal fibroblasts; assay type: cell-based
Description: (§3) Prostate cancer cells were donated by the University of Split, School of Medicine. Cells were cultured in RMPI-1640 medium, supplemented with 10% FBS, 1% Penicillin-Streptomycin, and 1% L-Glutamine. Human dermal fibroblasts were purchased from Biopredic (France) and cultured in DMEM medium, supplemented with 10% FBS and 1% Penicillin-Streptomycin. All cell lines were maintained in a humidified incubator with 5% CO2 at 37 °C. Cells were detached using the trypsin-EDTA solution and sub-cultured (7000 cells/well) in a 96-well plate overnight. Peptide stock solutions were prepared in PBS, and cancer cells were treated with 2-fold serial dilutions for 24 h at 37 °C, with 5% CO2. The toxicity of 6 selected peptides was assessed by a standard MTT assay. Treated cells were incubated with MTT working solution (0.5 mg/mL Thiazolyl Blue Tetrazolium Bromide) for 4 h at 37 °C with 5% CO2. Precipitated formazan was dissolved in 200 µL DMSO and absorbance was measured at 595 nm with EnSight Multimode Plate Reader (PerkinElmer, Inc.)

A. baum. clin. isolate = assay type: cell-based, Acinetobacter baumannii
Source text: as §1, §2

[2] = tested on: Escherichia coli (ATCC 25922); assay type: cell-based
Source text: as §1, §2

[3] = tested on: Klebsiella pneumoniae (ATCC 13883); assay type: cell-based
Source text: as §1, §2

[4] = tested on: Pseudomonas aeruginosa (ATCC 27853); assay type: cell-based
Source text: as §1, §2

Escherichia coli MG1655 = assay type: cell-based
Source text: as §1, §2

[5] = tested on: Staphylococcus aureus (ATCC 29213); assay type: cell-based
Source text: as §1, §2

[6] = tested on: Acinetobacter baumannii (ATCC 19606); assay type: cell-based
Source text: as §1, §2

human erythrocytes = assay: Hemolysis of human erythrocytes; assay type: cell-based; conditions: for HC10: concentration causing 10% hemolysis, 0.2% Triton = 100%; for HC10 / HC20 / HC50: 0.5% RBC in PBS, 1 h, 37 °C, absorbance 450 nm, triplicate; for HC20: concentration causing 20% hemolysis; for HC50: concentration causing 50% hemolysis
Description: Fresh blood was obtained from a healthy donor. Blood was stored in a tube containing EDTA at 4 °C and used within 24 h. Before use, 1 mL of blood was centrifuged (400× g, 10 min), and the supernatant was discarded. Moreover, 500 μL cold PBS with EDTA (1 mM) was added, mixed and centrifuged. The supernatant was discarded. Furthermore, 500 μL of cold PBS with EDTA (1 mM) was added, from which a dilution of 1% blood was made. Peptides were prepared in PBS at a 2 × concentration in 100 µL. […] The suspension was incubated at 37 °C for 1 h and centrifuged at 10,000× g for 5 min. […] After centrifugation, the supernatant was added to a 96-well microtiter plate (150–180 μL), and the absorbance was measured at 450 nm, using EnSight Multimode Plate Reader (PerkinElmer, Inc.). Each measurement was done in triplicate. […] We opted to also include the extrapolated HC50 in our results, to permit comparisons with older toxicity results. However, the HC20 measurements were used for ranking the peptides according to their selectivity and overall performance (Figure 1 and Figure 2 and Table 2).

[7] = tested on: PC-3 prostate cancer cell line; assay type: cell-based, human
Description: as §3

E. coli clin. isolate = assay type: cell-based, Escherichia coli
Source text: as §1, §2

K. pneum. clin. isolate = assay type: cell-based, Klebsiella pneumoniae
Source text: as §1, §2

[8] = multidrug-resistant clinical isolate, broth microdilution, MH medium, 18-24 h, 37 °C
[9] = broth microdilution, MH medium, 5 × 10^5 CFU/mL, 18-24 h, 37 °C

SMILES | HC10 (human erythrocytes) [µM] | HC20 (human erythrocytes) [µM] | HC50 (human erythrocytes) [µM] | MIC (S. aureus clin. isolate) (S. aureus clin. isolate; clin. isolate) [µM] | MIC (P. aerug. clin. isolate) (P. aerug. clin. isolate) [µM] | IC50 ([1]; 24 h) [µM] | MIC (A. baum. clin. isolate) (A. baum. clin. isolate) [µM] | MIC (E. coli ATCC 25922) ([2]; ATCC 25922) [µM] | MIC (K. pneum. ATCC 13883) ([3]; ATCC 13883) [µM] | MIC (P. aerug. ATCC 27853) ([4]; ATCC 27853) [µM] | MIC (E. coli MG1655) (Escherichia coli MG1655; MG1655) [µM] | MIC (S. aureus ATCC 29213) ([5]; ATCC 29213) [µM] | MIC (A. baum. ATCC 19606) ([6]; ATCC 19606) [µM] | (TI/ IC50C) vs. MP1 ([7]; 24 h) | IC50 ([7]; 24 h) [µM] | TI (HC20/IC20C) ([7]; 24 h) | TI (IC50F/IC50C) ([7]; 24 h) | TI/ IC50C ([7]; 24 h) | MIC (E. coli clin. isolate) (E. coli clin. isolate; clin. isolate) [µM] | MIC (K. pneum. clin. isolate) (K. pneum. clin. isolate) [µM] | other results
CC[C@H](C)[C@H](NC(=O)[C@H](CCCCN)NC(=O)[C@H](CCCCN)NC(=O)CNC(=O)[C@@H](NC(=O)[C@@H](N)CCCCN)[C@@H](C)CC)C(=O)N[C@@H](CC(C)C)C(=O)N[C@@H](CCCCN)C(=O)N[C@@H](C)C(=O)N[C@@H](CC(C)C)C(=O)N[C@@H](CCCCN)C(=O)NCC(=O)N[C@@H](C)C(=O)N[C@@H](CC(C)C)C(=O)N[C@@H](CCCCN)C(=O)N[C@@H](CCC(=O)O)C(=O)N[C@@H](CC(C)C)C(=O)N[C@@H](C)C(N)=O [MAPA] (H-KIGKKILKALKGALKELA-NH2) | 1.7 | 3 | 20 |  |  |  |  |  |  |  |  |  |  |  |  |  |  |  |  |  | MIC (S. aureus clin. isolate) (S. aureus clin. isolate; [8]): 8 µM (≈ 15.4 µg/mL); MIC (P. aerug. clin. isolate) (P. aerug. clin. isolate; [8]): 32 µM (≈ 61.5 µg/mL); IC50 ([1]; MTT assay, 7000 cells/well, 24 h treatment, 37 °C, 5% CO2, absorbance 595 nm, read-out: IC50F (Fibroblasts)): 25 µM; MIC (A. baum. clin. isolate) (A. baum. clin. isolate; [8]): 4 µM (≈ 7.69 µg/mL); MIC (E. coli ATCC 25922) ([2]; broth microdilution, MH medium, 5 × 10^5 CFU/mL, 18-24 h, 37 °C, at least three assays): 1 to 2 µM; MIC (K. pneum. ATCC 13883) [3, 9]: 8 µM (≈ 15.4 µg/mL); MIC (P. aerug. ATCC 27853) [4, 9]: 32 to 64 µM; MIC (E. coli MG1655) (Escherichia coli MG1655; broth microdilution, LB medium, 5 × 10^5 CFU/mL, 18-24 h, 37 °C, at least three assays): 4 µM (≈ 7.69 µg/mL); MIC (S. aureus ATCC 29213) [5, 9]: 0.5 µM (≈ 0.961 µg/mL); PEa(20) = SI/MIC(aureus) ([5]; overall performance, product of SI (20) and 1/MIC, S. aureus ATCC 29213): 12 µM⁻¹; MIC (A. baum. ATCC 19606) [6, 9]: 1 to 2 µM; IC50 ([7]; MTT assay, 7000 cells/well, 24 h treatment, 37 °C, 5% CO2, absorbance 595 nm, read-out: IC50C (PC-3)): 8 µM; TI (HC20/IC20C) ([7]; human erythrocytes vs PC-3): 1; TI/ IC50C ([7]; performance, product of TI and anticancer activity (1/IC50C)): 0.39; (TI/ IC50C) vs. MP1 ([7]; relative performance with respect to MP1 control peptide): 9.3; TI (IC50F/IC50C) ([7]; therapeutic index, fibroblasts vs PC-3): 3.1; MIC (E. coli clin. isolate) (E. coli clin. isolate; multidrug-resistant clinical isolate, broth microdilution, MH medium, 5 × 10^5 CFU/mL, 18-24 h, 37 °C): 8 to 16 µM; MIC (K. pneum. clin. isolate) (K. pneum. clin. isolate; [8]): 8 µM (≈ 15.4 µg/mL)
CC[C@H](C)[C@H](NC(=O)[C@H](CCCCN)NC(=O)[C@H](CC(C)C)NC(=O)[C@H](C)NC(=O)[C@H](CCCCN)NC(=O)[C@H](CC(C)C)NC(=O)[C@H](C)NC(=O)[C@@H](NC(=O)[C@H](CCCCN)NC(=O)[C@H](C)NC(=O)[C@@H](NC(=O)[C@@H](N)CCCCN)[C@@H](C)CC)C(C)C)C(=O)N[C@@H](C)C(=O)N[C@@H](CCCCN)C(=O)N[C@H](C(=O)N[C@@H](C)C(=O)N[C@@H](CC(C)C)C(=O)N[C@@H](CCCCN)C(=O)N[C@@H](C)C(=O)N[C@@H](CC(C)C)C(N)=O)C(C)C [PG2] (H-KIAKVALKALKIAKVALKAL-NH2) | 3 | 14 | 18 | 1.5 (≈ 3.13 µg/mL) | 6 (≈ 12.5 µg/mL) | 10 | 1.5 to 3 | 1.5 (≈ 3.13 µg/mL) | 3 (≈ 6.27 µg/mL) | 6 (≈ 12.5 µg/mL) | 16 (≈ 33.4 µg/mL) | 0.75 (≈ 1.57 µg/mL) | 1.5 (≈ 3.13 µg/mL) | 6.8 | 6 | 6 | 1.7 | 0.28 | 6 (≈ 12.5 µg/mL) | 12 (≈ 25.1 µg/mL) | 
CC[C@H](C)[C@H](NC(=O)[C@H](CCCNC(=N)N)NC(=O)[C@H](C)NC(=O)[C@H](Cc1ccc(O)cc1)NC(=O)[C@H](CCCNC(=N)N)NC(=O)[C@H](CCCNC(=N)N)NC(=O)[C@H](Cc1c[nH]c2ccccc12)NC(=O)[C@H](Cc1c[nH]cn1)NC(=O)[C@H](Cc1c[nH]cn1)NC(=O)[C@@H](N)CCCNC(=N)N)C(=O)NCC(=O)N[C@@H](Cc1ccccc1)C(=O)N[C@@H](CCCNC(=N)N)C(=O)N[C@@H](C)C(=O)N[C@H](C(=O)N[C@@H](CCCNC(=N)N)C(=O)N[C@H](C(=O)N[C@H](C(=O)N[C@H](C(=O)NCC(=O)N[C@@H](CCCCN)C(N)=O)[C@@H](C)CC)C(C)C)[C@@H](C)O)C(C)C [T2R1] (H-RHHWRRYARIGFRAVRTVIGK-NH2) | 3 | 25 |  | 4 (≈ 10.5 µg/mL) | 8 (≈ 21.1 µg/mL) | 80 | 8 (≈ 21.1 µg/mL) | 1 (≈ 2.64 µg/mL) | 2 (≈ 5.27 µg/mL) | 1 (≈ 2.64 µg/mL) | 4 (≈ 10.5 µg/mL) | 0.5 (≈ 1.32 µg/mL) | 2 (≈ 5.27 µg/mL) | 30 | 8 | 5 | 10 | 1.25 | 4 (≈ 10.5 µg/mL) | 2 to 4 | PEa(20) = SI/MIC(aureus) ([5]; ATCC 29213, 18 h): 100 µM⁻¹; HC50 * (extrapolated) (human erythrocytes; extrapolated, all concentrations tested lysed less than 50% of cells): 7000 * µM
CC[C@H](C)[C@H](NC(=O)[C@H](CCCNC(=N)N)NC(=O)[C@H](C)NC(=O)[C@H](Cc1ccc(O)cc1)NC(=O)[C@H](CCCNC(=N)N)NC(=O)[C@H](CCCNC(=N)N)NC(=O)[C@H](Cc1c[nH]c2ccccc12)NC(=O)[C@H](Cc1c[nH]cn1)NC(=O)[C@@H](N)Cc1c[nH]cn1)C(=O)NCC(=O)N[C@@H](Cc1ccccc1)C(=O)N[C@@H](CCCNC(=N)N)C(=O)N[C@@H](C)C(=O)N[C@H](C(=O)N[C@@H](CCCNC(=N)N)C(=O)N[C@H](C(=O)N[C@H](C(=O)N[C@H](C(=O)NCC(=O)N[C@@H](CCCCN)C(N)=O)[C@@H](C)CC)C(C)C)[C@@H](C)O)C(C)C [T2] (H-HHWRRYARIGFRAVRTVIGK-NH2) | 1.4 | 3 | 28 | 4 (≈ 9.92 µg/mL) | 32 (≈ 79.3 µg/mL) | 35 | 8 (≈ 19.8 µg/mL) | 0.5 to 1 | 4 (≈ 9.92 µg/mL) | 4 (≈ 9.92 µg/mL) | >32 | 1 (≈ 2.48 µg/mL) | 1 (≈ 2.48 µg/mL) | 8.4 | 10 | 1 | 3.5 | 0.35 | 8 (≈ 19.8 µg/mL) | 8 (≈ 19.8 µg/mL) | PEa(20) = SI/MIC(aureus) ([5]; ATCC 29213, 18 h): 3 µM⁻¹

Reference: publication PMC7436000, “The Spectrum of Design Solutions for Improving the Activity-Selectivity Product of Peptide Antibiotics against Multidrug-Resistant Bacteria and Prostate Cancer PC-3 Cells” (Molecules, 2020)
